# Laboratory results: patent US9796673B2 (TEVA PHARMACEUTICALS INTERNATIONAL GMBH, priority 2014, dated 2017)
# Structures can show the parent of a compound that is named as a salt.
# Experiments:
# [1] = Dynamic vapor sorption (DVS) hygroscopicity; assay type: physicochemical; conditions: for Hygroscopicity 40% RH: Table 3, 40% RH; for Hygroscopicity 75% RH: Table 3, 75% RH; for Hygroscopicity 90% RH: Table 3, 90% RH
# Procedure: DVS—Measurement of Dynamic Vapor Sorption: DVS experiments have been carried out using the DVS-HT instrument (Surface Measurement Systems, London, UK). This instrument measures the uptake and loss of vapor gravimetrically using a recording ultra-microbalance with a mass resolution of ±0.1 μg. The vapor partial pressure (±1.0%) around the sample is controlled by mixing saturated and dry carrier gas streams using electronic mass flow controllers. The desired temperature is maintained at ±0.1° C. […] The sample was loaded and unloaded at 40% RH and 25° C. (typical room conditions). A moisture sorption isotherm was performed as outlined below (2 scans giving 1 complete cycle). The software uses a least squares minimization procedure together with a model of the mass relaxation, to predict an asymptotic value. The measured mass equilibration value must be within 2% of that predicted by the software before proceeding to the next % RH value. The minimum equilibration time was set to 1 hour and the maximum to 4 hours.
# [2] = for pH: pH column of water solubility table (Table 2)
# Procedure: Estimation of Water Solubility: A kinetic solubility experiment was performed. Powder samples were placed in glass vials and shaken for 20 minutes in water. […] The samples were then centrifuged to insure that no solids remained. The concentration of pridopidine in the supernatant was measured by HPLC and calculated based on a standard curve. […] Excess pridopidine was suspended in the solutions in glass vials and shaken for 72 hours at 25° C. The samples were then centrifuged and the pH of the supernatant was measured. The concentration of pridopdine in the supernatant was measured by HPLC and calculated based on a standard curve.
# [3] = 4 week, 40° C. and 75% RH
# [4] = acid; cited from earlier work
# [5] = WO 01/46145 salt; cited from earlier work
Compound,Hygroscopicity 40% RH [1] [%],Hygroscopicity 75% RH [1] [%],Hygroscopicity 90% RH [1] [%],pKa1 [4],also measured
pridopidine L-malate,0.1,0.2,17.2,–,"Water solubility, Conc. ([2]; kinetic, in water, shaken 20 minutes): 76 mg/mL; pH [2]: 3.9; chemical and physical stability [3]: acceptable"
O=C(O)CO [Glycolic acid],–,–,–,3.28,–
"Br.CCCN1CCC(c2cccc(S(C)(=O)=O)c2)CC1 [HBr, reference compound]",0.04,0.08,0.12,–,–
O=S(=O)(O)c1ccccc1 [Benzene sulfonic acid],–,–,–,0.70,–
"CCCN1CCC(c2cccc(S(C)(=O)=O)c2)CC1 [Hydrochloride, pridopidine hydrochloride, reference compound]",0.1,0.45,7.3,–,relative humidities at which non-hygroscopic [5]: below 86%; relative humidity in excess of which deliquescent [5]: > 86%; pH [2]: 6.0
pridopidine tosylate,0.02,0.1,0.2,–,XRPD pattern before and after the DVS test [1]: no change in XRPD pattern; DVS weight gain ([1]; 40% RH): 0.02%; DVS weight gain ([1]; 70% RH): 0.1%; DVS weight gain ([1]; 90% RH): 0.2%
"CCCN1CCC(c2cccc(S(C)(=O)=O)c2)CC1.CCCN1CCC(c2cccc(S(C)(=O)=O)c2)CC1.O=C(O)CCC(=O)O [Succinate (hemi), pridopidine succinate (hemi)]",3,40,70,–,Deliquescence during the DVS test [1]: deliquesced; DVS weight gain ([1]; 40% RH): 3%; DVS weight gain ([1]; 70% RH): 4%; DVS weight gain ([1]; 90% RH): 37%
O=S(=O)(O)c1ccc2ccccc2c1 [Naphthalene 2-sulfonic acid],–,–,–,0.17,–
